Common to all, as to experiment: NCI tumour cell line growth inhibition, 48 h
For test [1], the system named is A498 renal.
Test [2] deals with BT-549 breast.
Test [3] has as its system COLO 205 colon.
Test [4] relates to HCT-15 colon.
Test [5] relates to HOP-92 NSCLC.
Test [6] relates to HS 578T breast.
For test [7], the system named is HT29 colon.
Test [8] has as its system IGROV1 ovarian.
In test [9] the test system is MOLT-4 leukemia.
Test [10] deals with NCI-H23 lung.
Test [11] relates to OVCAR-4 ovarian.
For test [12], the system named is RPMI-8226 leukemia.
The subject of test [13] is SK-MEL-2 melanoma.
The test system of test [14] is SK-MEL-5 melanoma.
For test [15], the system named is SK-OV-3 ovarian.
In test [16] the test system is SN12C renal.
Test [17] deals with SR leukemia.
Test [18] has as its system UACC-257 melanoma.
Test [19] relates to UACC-62 melanoma.

SMILES strings stand for the structures.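 All cell lines were grown in 96-well plates and treated with compound for 48 hours. TGI marks complete inhibition of growth.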

As to `c1ccc2nc3cc4c(cc3nc2c1)NC12CCCCC1CC1=C(CCCC1)N42` (configuration not stated), the TGI in [1] was greater than 10 µM; in [2], 4.72 µM; in [3], 3.6 µM; in test [4] it was greater than 10 µM; in test [5] it was greater than 10 µM; in test [6], 8.04 µM. Also, the TGI is greater than 10 µM in test [7]; greater than 10 µM in [8]; 5.25 µM in test [9]; greater than 10 µM in test [10]; 6.96 µM in test [11]; 5.52 µM in [12]. Further, the TGI in test [13] is 9.53 µM; in test [14], 5.16 µM; in test [15], greater than 10 µM; in test [16] it was 6.48 µM; in test [17], 1.51 µM; in test [18], 7.03 µM. Moreover, the TGI in [19] came to 9.63 µM.
In the case of `NC(N)=NS(=O)(=O)c1ccc(NNc2c3ccccc3nc3c(C(=O)Nc4ccc(S(N)(=O)=O)cc4)cccc23)cc1`, the TGI was greater than 100 µM in [1]; 70.2 µM in test [2]; greater than 100 µM in test [3]; greater than 100 µM in [4]; 73.8 µM in [5]; 88 µM in [6]. The TGI was 56.1 µM in test [7]; greater than 100 µM in test [8]; 70.6 µM in test [9]; greater than 100 µM in [10]; greater than 100 µM in test [11]; greater than 100 µM in test [12]. Also, the TGI in test [13] is 46.9 µM; in test [14], greater than 100 µM; in test [15] it was greater than 100 µM; in test [16], greater than 100 µM; in [17] it was greater than 100 µM; in test [18], greater than 100 µM. Besides, in test [19], the TGI is greater than 100 µM.
As for `COC(=O)c1ccc(NCc2cc(O)ccc2O)cc1O`, the TGI in test [1] is 58.8 µM; in test [2], 14.2 µM; in test [3], 33.7 µM; in [4] it was 26.5 µM; in [5], 29 µM; in test [6], greater than 68.1 µM. Further, the TGI in test [7] was found to be 34.4 µM; in test [8], 27.8 µM; in [9], 8.49 µM; in test [10], 27.9 µM; in test [11], 26.2 µM; in test [12], 4.93 µM. Further, the TGI is 37.4 µM in test [13]; 26.4 µM in test [14]; greater than 55.5 µM in test [15]; 29.1 µM in [16]; greater than 23.8 µM in [17]; 30.9 µM in [18]. Moreover, the TGI in [19] was found to be 34 µM.

For the origin of these results see PubChem BioAssay (NCI).
